According to US7319110B2, “1H-1,2,4-triazole-3-carboxamide derivatives having cannabinoid-CB1 receptor agonistic, partial agonistic, inverse agonistic or antagonistic activity” (Solvay Pharmaceuticals B.V., priority 2002, dated 2008):

Compound | melting point
Cl.O=C(NN1CCCC1)c1nc(-c2ccc(Cl)cc2Cl)n(-c2ccc(Cl)cc2)n1 | 234 to 236 °C (dec.)
O=C(NN1CCCCC1)c1nc(-c2ccc(Cl)cc2Cl)n(-c2ccc(C(F)(F)F)cc2)n1 | 159 to 161 °C
O=C(NN1CCOCC1)c1nc(-c2ccc(Cl)cc2)n(-c2ccc(Cl)cc2Cl)n1 | 184 to 186 °C
O=C(NN1CCCCC1)c1nc(-c2cccnc2)n(-c2ccc(Cl)cc2Cl)n1 | 219 °C
Cl.O=C(NN1CCCCC1)c1nc(-c2ccc(Cl)cc2)n(-c2ccc(Cl)cc2Cl)n1 | 238 to 240 °C (dec.)

Second part, the compound after the results:

melting point | Compound
186 to 188 °C | O=C(NC1CCCCC1)c1nc(-c2ccc(Cl)cc2)n(-c2ccc(Cl)cc2Cl)n1 [Example 3, 5-(4-Chlorophenyl)-N-cyclohexyl-1-(2,4-dichlorophenyl)-1H-1,2,4-triazole-3-carboxamide]
224 to 226 °C | Cl.O=C(NN1CCOCC1)c1nc(-c2ccc(Cl)cc2Cl)n(-c2ccc(Cl)cc2)n1
150 to 152 °C | CC(C)(C)ONC(=O)c1nc(-c2ccc(Cl)cc2)n(-c2ccc(Cl)cc2Cl)n1
248 to 255 °C (dec.) | Cl.O=C(NN1CCCC1)c1nc(-c2ccc(Cl)cc2)n(-c2ccc(Cl)cc2Cl)n1 [Example 2, 5-(4-Chlorophenyl)-1-(2,4-dichlorophenyl)-N-(pyrrolidin-1-yl)-1H-1,2,4-triazole-3-carboxamide hydrochloride]
191 to 193 °C | O=C(NN1CCCCC1)c1nc(-c2ccccn2)n(-c2ccc(Cl)cc2Cl)n1
